Measured values reported in article PMC9098913, “In vitro reconstitution of Escherichia coli divisome activation” (Nature Communications, 2022).
Where two headings read alike, the source gives them in different places.

Columns and labels:
[1] = system: FtsZ; details: for Pearson correlation coefficient (PCC) FtsA/FtsZ: 1.25 µM FtsZ, mean ± s.d.
Method: Additionally, the reaction chamber contained 4 mM ATP and 4 mM GTP, as well as a scavenging system to minimize photobleaching effects: 30 mM d-glucose, 0.050 mg ml^−1 Glucose Oxidase, 0.016 mg ml^−1 Catalase, 1 mM DTT and 1 mM Trolox. Prior addition of all components a corresponding buffer volume was removed from the chamber to obtain a total reaction volume of 100 µl. The dynamic protein pattern was monitored by time-lapse TIRF microscopy at one frame per 2 s and 50 ms exposure time.
Time-lapse videos were first intensity-corrected and contrast-enhanced to avoid bleaching effects and simplify subsequent analysis. To remove contributions of X–Y drift, the videos were processed with the Linear Stack Alignment with SIFT plugin. […] Subsequently, regions of interest (ROIs) in the center of the stacks were chosen for colocalization analysis. The Pearson’s correlation coefficient (PCC) was quantified with the Image CorrelationJ 1o plugin. To extract information about the relative ratio of FtsZ/FtsA molecules (slope of linear regression), we also used the Image CorrelationJ 1o plugin. As an output, the plugin provides a scatterplot of FtsZ vs FtsA intensities, to which we fitted a linear slope y=k⋅x+d , where k is the slope and d the offset. The slope was used as an estimate for the ratio of FtsA molecules below FtsZ filaments[42].

[2] = Single-molecule membrane residence time of FtsA; assay type: binding; set-up: Single Molecule Lifetime: unit not given here; details: for Single Molecule Lifetime, mean: mean of Exp. 1-3, n = 3, Fig. 3b; for mean residence time on the membrane: single-particle tracking, n = 3
Method: First, we studied the behaviour of single FtsA proteins on the membrane surface.
After 5 min of incubation, single molecule time lapses were acquired every 125, 250, 500, and 1000 and 2000 ms, with an exposure time of 50 ms. Subsequently, the bulk concentration of FtsA was increased to 0.2/0.4/0.8 µM and time lapses were repeated as described above.
Single molecules of FtsA or FtsZ were tracked using the TrackMate plugin from ImageJ[43]. To obtain the residence time of FtsZ and FtsA, we performed a residence time analysis as described before[40],[47]. Shortly, single molecules were imaged at different acquisition rates (0.1–2 s) and the lifetime of the molecules was extracted from each data set. To account for photobleaching effect, the obtained lifetimes were plotted against the acquisition rate. […] Furthermore, we extracted the diffusion coefficient of FtsA single molecules at increasing concentrations. For this, we filtered the obtained data, by considering only trajectories which are present on the membrane for more than 0.4 s. […] Subsequently, the diffusion coefficient of FtsA molecules was estimated by fitting an MSD curve to each individual trajectory.

[3] = system: FtsZ filaments; test: Slope of linear regression FtsZ vs FtsA intensity (packing of FtsA below FtsZ filaments); assay type: biochemical, E. coli; details: for Slope of linear regression: Fig. S2h
Text: While fluorescence microscopy cannot resolve molecular assemblies of these small dimensions, a higher packing density of FtsA R286W below FtsZ filaments could explain the enhanced colocalization with FtsZ. To test this hypothesis, we analysed the pixel-by-pixel relationship between the fluorescence intensities of FtsZ and FtsA in dual-colour fluorescence time-lapse movies. […] At low FtsA concentrations, we found the slopes for both proteins to be similar.

[4] = Membrane binding of FtsA by QCM-D
Method: To quantify the intrinsic membrane-affinity of the two versions of FtsA, we used Quartz Crystal Microbalance with Dissipation (QCM-D) and measured the hydrated mass of adsorbed protein on a membrane surface.
QCM-D experiments were performed with the QSense Analyzer from Biolin Scientific, equipped with silica-coated sensor (QSX 303). The sensors were cleaned for 10 s in a Zepto plasma cleaner, mounted in the QCM-D chambers and the acquisition of the experiment was first performed in the reaction buffer (50 mM Tris-HCl [pH 7.4], 150 mM KCl and 5 mM MgCl2). The supported lipid membrane was formed by rupturing 0.5 mM small unilamellar vesicles (SUVs) in the presence of MgCl2. The lipids used were 1,2-dioleoyl-sn-glycero-3-phosphocholine (DOPC) and 1,2-dioleoyl-sn-glycero-3-phospho-(1′-rac-glycerol) (DOPG) at a ratio of 67:33 mol%. After bilayer formations, the reaction buffer supplemented with 2 mM ATP, 2 mM GTP and 1 mM DTT was injected and the signal was recorded until a stable equilibrium was reached. Subsequently, increasing concentrations of FtsA were injected in the QCM-D chamber and changes in frequency and dissipation were monitored in real-time. The flow rate used in all experiments was 25 µl min^−1, and the temperature was set to 25 °C. To estimate the membrane-binding affinity, we extracted the frequency changes of the 5th acoustic harmonic for different FtsA concentrations and fitted a Hill equation y=S+(E−S)⋅(x^n/k^n+x^n) , where S is the starting point, E the end point, n is the Hill coefficient and k the dissociation constant. The measured binding affinity is an upper estimate, because QCM-D accounts not only on the dry molecular mass, but also on the hydration shell of the molecular assembly.

**Q.** Which results are given for “FtsA WT: wild-type E. coli actin-homologue FtsA, membrane anchor of FtsZ”?
**A.** Pearson correlation coefficient (PCC) FtsA/FtsZ ([1]; 0.1 µM FtsA, steady state about 15 min): 0.78 ± 0.04; PCC FtsZ/FtsA ([1]; 0.1µM FtsA, Exp. 2): 0.79; PCC FtsZ/FtsA ([1]; 0.1µM FtsA, replicate 1 (row printed 'goo')): 0.77; Pearson correlation coefficient (PCC) FtsA/FtsZ ([1]; 0.2 µM FtsA, steady state about 15 min): 0.69 ± 0.06; PCC FtsZ/FtsA ([1]; 0.2µM FtsA, Exp. 2): 0.62; PCC FtsZ/FtsA ([1]; 0.2µM FtsA, replicate 1 (row printed 'goo')): 0.61; Pearson correlation coefficient (PCC) FtsA/FtsZ ([1]; 0.4 µM FtsA, WT vs R286W p-value 1.28 × 10^−5): 0.32 ± 0.12; PCC FtsZ/FtsA ([1]; 0.4µM FtsA, Exp. 2): 0.40; PCC FtsZ/FtsA ([1]; 0.4µM FtsA, replicate 1 (row printed 'goo')): 0.43; Pearson correlation coefficient (PCC) FtsA/FtsZ ([1]; 0.8 µM FtsA): 0.27 ± 0.09; PCC FtsZ/FtsA ([1]; 0.8µM FtsA, Exp. 2): 0.29; PCC FtsZ/FtsA ([1]; 0.8µM FtsA, replicate 1 (row printed 'goo')): 0.38; Single Molecule Lifetime ([2]; 0.1 µM FtsA, Exp. 1): 15.60; Single Molecule Lifetime ([2]; 0.1µM FtsA, Exp. 2): 17.80; Single Molecule Lifetime ([2]; 0.1 µM FtsA, Exp. 3): 24.80; Single Molecule Lifetime, mean ([2]; 0.1 µM FtsA): 19.40; mean residence time on the membrane ([2]; 0.1 µM FtsA): 19.4 ± 3.9 s; Single Molecule Lifetime ([2]; 0.2 µM FtsA, Exp. 1): 13.20; Single Molecule Lifetime ([2]; 0.2µM FtsA, Exp. 2): 21.50; Single Molecule Lifetime ([2]; 0.2 µM FtsA, Exp. 3): 28.80; Single Molecule Lifetime, mean ([2]; 0.2 µM FtsA): 21.17; Single Molecule Lifetime ([2]; 0.4 µM FtsA, Exp. 1): 28.70; Single Molecule Lifetime ([2]; 0.4µM FtsA, Exp. 2): 24.00; Single Molecule Lifetime ([2]; 0.4 µM FtsA, Exp. 3): 26.30; Single Molecule Lifetime, mean ([2]; 0.4 µM FtsA): 26.33; Single Molecule Lifetime ([2]; 0.8 µM FtsA, Exp. 1): 37.60; Single Molecule Lifetime ([2]; 0.8µM FtsA, Exp. 2): 32.60; Single Molecule Lifetime ([2]; 0.8 µM FtsA, Exp. 3): 35.20; Single Molecule Lifetime, mean ([2]; 0.8 µM FtsA): 35.13; mean residence time on the membrane ([2]; 0.8 µM FtsA): 35.1 ± 2.0 s; Slope of linear regression FtsZ vs FtsA ([3]; 0.1 µM FtsA, mean): 0.64; Slope of linear regression, mean of single experiment ([3]; 0.1µM, replicate column 1): 0.68; Slope of linear regression, mean of single experiment ([3]; 0.1µM, replicate column 2): 0.37; Slope of linear regression, mean of single experiment ([3]; 0.1µM, replicate column 3): 0.74; Slope of linear regression, mean of single experiment ([3]; 0.1µM, replicate column 4): 0.70; Slope of linear regression FtsZ vs FtsA ([3]; 0.2 µM FtsA, mean): 0.45; Slope of linear regression, mean of single experiment ([3]; 0.2µM, replicate column 1): 0.40; Slope of linear regression, mean of single experiment ([3]; 0.2µM, replicate column 2): 0.56; Slope of linear regression, mean of single experiment ([3]; 0.2µM, replicate column 3): 0.40; Slope of linear regression, mean of single experiment ([3]; 0.4µM, replicate column 1): 0.0747; Slope of linear regression, mean of single experiment ([3]; 0.4µM, replicate column 2): 0.0547; Slope of linear regression, mean of single experiment ([3]; 0.4µM, replicate column 3): 0.49; Slope of linear regression, mean of single experiment ([3]; 0.4µM, replicate column 4): 0.31; Slope of linear regression FtsZ vs FtsA ([3]; 0.8 µM FtsA, mean): 0.17; Slope of linear regression, mean of single experiment ([3]; 0.8µM, replicate column 1): 0.16; Slope of linear regression, mean of single experiment ([3]; 0.8µM, replicate column 2): 0.15; Slope of linear regression, mean of single experiment ([3]; 0.8µM, replicate column 3): 0.23; Slope of linear regression, mean of single experiment ([3]; 0.8µM, replicate column 4): 0.13; Slope of linear regression ([3]; + FtsN, 0.10 µM, mean): 0.81 a.u.; Slope of linear regression ([3]; + FtsN, 0.10 µM, replicate 1): 0.84 a.u.; Slope of linear regression ([3]; + FtsN, 0.10 µM, replicate 2): 0.82 a.u.; Slope of linear regression ([3]; + FtsN, 0.10 µM, replicate 3): 0.78 a.u.; Slope of linear regression ([3]; + FtsN, 0.20 µM, mean): 0.65 a.u.; Slope of linear regression ([3]; + FtsN, 0.20 µM, replicate 1): 0.62 a.u.; Slope of linear regression ([3]; + FtsN, 0.20 µM, replicate 2): 0.61 a.u.; Slope of linear regression ([3]; + FtsN, 0.20 µM, replicate 3): 0.72 a.u.; Slope of linear regression ([3]; + FtsN, 0.40 µM, mean): 0.35 a.u.; Slope of linear regression ([3]; + FtsN, 0.40 µM, replicate 1): 0.43 a.u.; Slope of linear regression ([3]; + FtsN, 0.40 µM, replicate 2): 0.47 a.u.; Slope of linear regression ([3]; + FtsN, 0.40 µM, replicate 3): 0.13 a.u.; Slope of linear regression ([3]; without FtsN, 0.10 µM, mean): 0.70 a.u.; Slope of linear regression ([3]; without FtsN, 0.10 µM, replicate 1): 0.52 a.u.; Slope of linear regression ([3]; without FtsN, 0.10 µM, replicate 2): 0.85 a.u.; Slope of linear regression ([3]; without FtsN, 0.10 µM, replicate 3): 0.71 a.u.; Slope of linear regression ([3]; without FtsN, 0.20 µM, mean): 0.59 a.u.; Slope of linear regression ([3]; without FtsN, 0.20 µM, replicate 1): 0.55 a.u.; Slope of linear regression ([3]; without FtsN, 0.20 µM, replicate 2): 0.56 a.u.; Slope of linear regression ([3]; without FtsN, 0.20 µM, replicate 3): 0.66 a.u.; Slope of linear regression ([3]; without FtsN, 0.40 µM, mean): 0.16 a.u.; Slope of linear regression ([3]; without FtsN, 0.40 µM, replicate 1): 0.24 a.u.; Slope of linear regression ([3]; without FtsN, 0.40 µM, replicate 2): 0.066 a.u.; Slope of linear regression ([3]; without FtsN, 0.40 µM, replicate 3): 0.18 a.u.; Mean of QCM-D experiments ([4]; 0.01 µM): 1.23; Mean of QCM-D experiments ([4]; 0.05 µM): 3.38; Mean of QCM-D experiments ([4]; 0.10 µM): 7.01; amount of membrane-bound protein saturated at ([4]; QCM-D): 0.8 µM; Kd ([4]; QCM-D, Hill fit, 5th harmonic, DOPC:DOPG 67:33 mol%, pH 7.4, 150 mM KCl, 5 mM MgCl2, 2 mM ATP, 2 mM GTP, 25 °C, n = 2, upper estimate): 210 ± 10 nM
